Measurements taken from PubChem BioAssay (NCI).
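Test compounds were applied to cells in 96-well plates for 48 hours at 5 doses. TGI: total growth inhibition.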 *1 amine or outer side, *2 acyl side, *3 side chain or, on linkers, in order; H or OH if unused. Where a SMILES comes first, the peptide text is derived from it. [ ]: non-standard residue; d: D form. The star is where a group is joined. X31 = CC(=O)N(C)SCC(N[*:1])C(=O)[*:2]; Fmoc = O=C(OCC1c2ccccc2-c2ccccc21)*; Cbz = O=C(OCc1ccccc1)*; Boc = CC(C)(C)OC(=O)*; Bn = c1ccc(C*)cc1

Key:
Experiment in all cases: NCI anticancer screen, dose series, 48 h
MDA-MB-435 = test system: MDA-MB-435
SK-OV-3 ovarian = test system: SK-OV-3 ovarian
HCT-15 colon = test system: HCT-15 colon
OVCAR-4 ovarian = test system: OVCAR-4 ovarian
HOP-62 NSCLC = test system: HOP-62 NSCLC
SNB-19 CNS = test system: SNB-19 CNS
SR leukemia = test system: SR leukemia
IGROV1 ovarian = test system: IGROV1 ovarian
SNB-75 CNS = test system: SNB-75 CNS
SF-268 CNS = test system: SF-268 CNS

Row | Compound | TGI (MDA-MB-435) [µM] | TGI (SK-OV-3 ovarian) [µM] | TGI (HCT-15 colon) [µM] | TGI (OVCAR-4 ovarian) [µM] | TGI (HOP-62 NSCLC) [µM] | TGI (SNB-19 CNS) [µM] | TGI (SR leukemia) [µM] | TGI (IGROV1 ovarian) [µM] | TGI (SNB-75 CNS) [µM] | TGI (SF-268 CNS) [µM]
1 | C=C(CN1CC2C[C@](C(=O)OC)(c3cc4ccccc4[nH]3)C1C(OC)C2OC)S(=O)(=O)c1ccccc1 (stereo not given in full) | 7.21 | 13.8 | 8.61 | 12.5 | 23.4 | 24.3 | 5.91 | 8.98 | 11.6 | 15.8
2 | CC(C)(C)c1cc2c(O)c(c1)Cc1cc(C(C)(C)C)cc(c1O)Cc1cc(C(C)(C)C)cc(c1O)Cc1cc(C(C)(C)C)cc(c1O)Cc1cc(C(C)(C)C)cc(c1O)Cc1cc(C(C)(C)C)cc(c1O)Cc1cc(C(C)(C)C)cc(c1O)Cc1cc(C(C)(C)C)cc(c1O)C2 | > 50 | > 50 | > 50 | > 50 | > 50 | > 50 | > 50 | > 50 | > 50 | > 50
3 | O=C(CCCl)NNC1=NCCCN1 | > 100 | > 100 | > 100 | > 100 | > 100 | > 100 | > 100 | > 100 | > 100 | > 100
4 | CN1CCC2(CC1)C(=NC1CCCCC1)NC(=S)N2c1ccccc1 | > 100 | > 100 | > 100 | > 100 | > 100 | > 100 | > 100 | > 100 | > 100 | > 100
5 | CCN(CC)CCNc1ccc2nnn3c4ccc(O)cc4c(=O)c1c23 | 17.4 | 40.3 | 17.6 | 12.6 | 14 | 22.2 | 1.48 | 20.5 | 14.1 | 21.7
6 | COc1ccc2nc3ccc(OC)cc3c(SCc3ccccc3)c2c1 | > 100 | > 100 | > 100 | > 100 | > 100 | > 100 | > 100 | > 100 | > 100 | > 100
7 | COC(=O)[C@H](Cc1ccc(OC(C)(C)C)cc1)N[C@H](C)C(=O)N[C@@H](Cc1ccccc1)C(=O)OCc1ccccc1 | > 100 | > 100 | > 100 | > 100 | > 100 | > 100 | 70.5 | > 100 | > 100 | > 100
8 | O=C(CSc1nc2ccc(I)cc2c(=O)n1Cc1ccccc1)NNC(=O)c1ccccc1 | > 100 | 44.9 | > 100 | 57.4 | 22.7 | 63.3 | 23.7 | 24.7 | 10.3 | 20.8
9 | C[C@@H](NC(=O)c1ccc(CNC(=O)/C=C/c2cccc(Oc3ccccc3)c2)cc1)c1ccccc1 | > 100 | > 100 | > 100 | > 100 | > 61.7 | > 52.2 | > 100 | > 100 | 20.1 | 78
10 | CCOC(=O)C(=O)/C(=C/N1C(=O)CC(=O)NC1=S)C(=O)OCC | > 100 | > 100 | > 100 | > 100 | > 100 | > 100 | > 100 | > 100 | > 100 | > 100
11 | CCOP(=O)(OCC)/C(C#N)=C/c1cnc[nH]1 | > 100 | > 100 | > 100 | > 100 | > 100 | > 100 | > 100 | > 100 | > 100 | > 100
12 | O=C1C=C(OCCCCl)C(=O)c2c(O)ccc(O)c21 | 0.364 | 3.85 | 1.58 | 1.71 | 2.75 | 3.55 | 3.52 | 3.44 | 2.69 | 3.16
13 | O=c1[nH]c(=O)n(C2OC(CO)C(O)C2O)cc1Oc1ccccc1 (stereo not given) | > 100 | > 100 | > 100 | > 100 | > 100 | > 100 | > 100 | > 100 | > 100 | > 100
14 | COC(=O)CCC(C)C1CCC2C3C(C[C@H](OC(C)=O)[C@]12C)[C@@]1(C)CCC2(C[C@H]1C[C@H]3OC(C)=O)OOC1(CC[C@]3(C)C4C[C@H](OC(C)=O)[C@]5(C)C(C(C)CCC(=O)OC)CCC5C4[C@H](OC(C)=O)C[C@@H]3C1)OO2 (stereo not given in full) | > 100 | > 100 | > 100 | > 100 | > 100 | > 100 | 99.1 | > 100 | > 100 | > 100
15 | CC(=O)OC12c3ccccc3-c3ccccc3C1C1C(=O)OC(=O)C12 (stereo not given) | > 10 | > 10 | > 10 | > 10 | > 10 | > 10 | > 10 | > 10 | > 10 | > 10
16 | O=c1c2cc(Cl)cc(Cl)c2oc2nc3n(c(=O)c12)CCCS3 | > 100 | > 100 | > 100 | > 100 | > 100 | > 100 | > 100 | > 100 | > 100 | > 100
17 | COc1cc(-c2[o+]c3cc(O)cc(O)c3cc2O)cc(O)c1O | 38.3 | > 100 | > 100 | > 100 | > 100 | > 100 | > 100 | > 100 | > 100 | > 100

Row | Compound | TGI (MDA-MB-435) [µM] | TGI (SK-OV-3 ovarian) [µM] | TGI (HCT-15 colon) [µM] | TGI (OVCAR-4 ovarian) [µM] | TGI (HOP-62 NSCLC) [µM] | TGI (SNB-19 CNS) [µM] | TGI (SR leukemia) [µM] | TGI (IGROV1 ovarian) [µM] | TGI (SNB-75 CNS) [µM] | TGI (SF-268 CNS) [µM]
18 | CC(C)(C)OC(=O)NCCCCC(NC(=O)C(Cc1c[nH]c2ccccc12)NC(=O)OCC1c2ccccc2-c2ccccc21)C(=O)N1CCCC1C(=O)NCC(N)=O (stereo not given) (Fmoc-WK(Boc)PG-NH2; configuration not given here) | > 100 | > 100 | > 100 | > 100 | > 100 | > 100 | > 100 | > 100 | > 100 | > 100
19 | c1ccc2c(c1)CCc1[nH]c3c(c1-2)-c1ccccc1CC3 | > 100 | > 100 | > 100 | > 100 | 58.5 | > 100 | > 100 | > 100 | > 100 | > 100
20 | O=C1CC(=O)NC(=NNS(=O)(=O)c2ccccc2)N1 | > 100 | > 100 | > 100 | > 100 | > 100 | > 100 | > 100 | > 100 | > 100 | > 100
21 | CC(OC(=O)C(CC(=O)OC(C)(C)C)NC(=O)OC(C)(C)C)C(=O)OCc1ccccc1 (stereo not given) | > 100 | > 100 | > 100 | > 100 | > 100 | > 100 | > 100 | > 100 | > 100 | > 100
22 | CSc1ncc2c(n1)sc1c(=O)n(-c3ccccc3)cnc12 | > 100 | > 100 | > 100 | > 100 | > 100 | > 100 | > 100 | > 100 | > 100 | > 100
23 | Cc1ccc2nc(C=Nc3ccc(Cl)cc3)cc(C)c2c1 | 24.1 | > 100 | 0.4 | > 83.1 | 22.5 | > 100 | 11.6 | 31.3 | 57.5 | 59.2
24 | O=C1C=CC(=O)c2c1ccc1c3ccccc3n(Cc3cccc([N+](=O)[O-])c3)c21 | > 65.2 | > 100 | 50.2 | > 63.8 | > 100 | > 100 | > 32.6 | 54.7 | > 100 | > 100
25 | COC(=O)/C=C/C1(O)C=CC(=O)C=C1 | > 39.2 | 42.2 | > 31.9 | 15.6 | 14.4 | 18.1 | 10.7 | 7.74 | 24 | 5.84
26 | C[N+](C)(C)CC(=O)N/N=C/c1ccncc1 | > 100 | > 100 | > 100 | > 100 | > 100 | > 100 | > 100 | > 100 | > 100 | > 100
27 | OCCOc1ccccc2cccc1-2 | > 100 | > 100 | > 100 | > 100 | > 100 | > 100 | > 100 | > 100 | > 100 | > 100
28 | c1ccc2c(c1)NC1(N3CCCCC3)CCCCC21 (stereo not given) | > 100 | > 100 | > 100 | > 100 | > 100 | > 100 | > 100 | > 100 | > 100 | > 100
29 | COc1cccc(N(CN2C(=O)CCC2C(=O)O)C(C)=O)c1 (stereo not given) | > 100 | > 100 | > 100 | > 100 | > 100 | > 100 | > 100 | > 100 | > 100 | > 100
30 | CCOc1cc2oc(C)cc(=O)c2c(OC)c1C=Nc1ccc(Cn2c(C)nc3ccccc32)cc1 | > 100 | > 100 | > 100 | > 100 | > 100 | > 100 | > 100 | > 100 | > 100 | > 100
31 | CC(=O)N(C)SCC(NC(=O)C(Cc1ccccc1)NC(=O)OCc1ccccc1)C(=O)NC(Cc1ccccc1)C(=O)NC(Cc1c[nH]c2ccccc12)C(=O)NC(CCCCNC(=O)OCc1ccccc1)C(=O)NC(C(=O)NC(CSN(C)C(C)=O)C(=O)NC(C(N)=O)C(C)OCc1ccccc1)C(C)OCc1ccccc1 (stereo not given) (Cbz-F[X31]FWK(Cbz)T(Bn)[X31]T(Bn)-NH2; configuration not given here) | > 100 | > 100 | > 100 | > 100 | > 100 | > 100 | > 100 | > 100 | > 100 | > 100
32 | CCOC(=O)C(NC(=O)c1ccccc1)(Nc1ccc(Cl)cc1C(F)(F)F)C(F)(F)F (stereo not given) | 3.24 | > 100 | > 50.9 | > 100 | 31.8 | > 100 | > 24 | > 64.7 | 15.1 | > 100
33 | COC(=O)[C@H](CC(C)C)Nc1c(O)c2c(c(O)c1Cl)C(=O)C=CC2=O | > 10 | > 10 | > 10 | > 10 | > 10 | > 10 | > 10 | > 10 | > 10 | > 10
